In patent publication US12258328B2, “6-membered heteroaryl-containing aminopyridine compounds as EGFR inhibitors” (YUHAN CORPORATION, priority 2021, dated 2025):
Read-outs that look alike come from different tables or passages of the source.

How the values were obtained:
EGFR del19/T790M/C797S = EGFR del19/T790M/C797S (Homo sapiens, UniProt P00533, C797S/DEL746-750/T790M); experiment: Biochemical EGFR kinase assay (Lance Ultra TR-FRET), triple mutant del19/T790M/C797S
Method in brief: (§1)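 Enzyme reactions lasted 1 hour at room temperature with test compounds between 0.003 and 10 μM, followed by 10 mM EDTA quench.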

EGFR L858R/T790M/C797S = EGFR L858R/T790M/C797S (Homo sapiens, UniProt P00533, C797S/L858R/T790M); experiment: Biochemical EGFR kinase assay (Lance Ultra TR-FRET), triple mutant L858R/T790M/C797S
Method in brief: as §1

EGFR wildtype = EGFR wildtype (Homo sapiens, UniProt P00533); experiment: Biochemical EGFR kinase assay (Lance Ultra TR-FRET), wildtype
Method in brief: as §1

EGFR del19/C797S = EGFR del19/C797S (Homo sapiens, UniProt P00533, C797S/DEL746-750); experiment: Biochemical EGFR kinase assay (Lance Ultra TR-FRET), double mutant del19/C797S
Method in brief: as §1

EGFR L858R/C797S = EGFR L858R/C797S (Homo sapiens, UniProt P00533, C797S/L858R); experiment: Biochemical EGFR kinase assay (Lance Ultra TR-FRET), double mutant L858R/C797S
Method in brief: as §1

[1] = IC50 del19/T790M/C797S (nM) 100 μM ATP, 100 μM ATP
[2] = Km ATP, read-out: IC50 del19/T790M/C797S (nM) Km ATP
[3] = IC50 L858R/T790M/C797S (nM) 100 μM ATP, 100 μM ATP
[4] = Km ATP, read-out: IC50 L858R/T790M/C797S (nM) Km ATP
[5] = IC50 WT (nM) 100 μM ATP, 100 μM ATP
[6] = Km ATP, read-out: IC50 WT (nM) Km ATP
[7] = IC50 del19/C797S (nM) 100 μM ATP, 100 μM ATP
[8] = Km ATP, read-out: IC50 del19/C797S (nM) Km ATP
[9] = IC50 L858R/C797S (nM) 100 μM ATP, 100 μM ATP
[10] = Km ATP, read-out: IC50 L858R/C797S (nM) Km ATP

EGFR L858R/T790M/C797S, sequence (P00533 25-1210 T790M/C797S/L858R): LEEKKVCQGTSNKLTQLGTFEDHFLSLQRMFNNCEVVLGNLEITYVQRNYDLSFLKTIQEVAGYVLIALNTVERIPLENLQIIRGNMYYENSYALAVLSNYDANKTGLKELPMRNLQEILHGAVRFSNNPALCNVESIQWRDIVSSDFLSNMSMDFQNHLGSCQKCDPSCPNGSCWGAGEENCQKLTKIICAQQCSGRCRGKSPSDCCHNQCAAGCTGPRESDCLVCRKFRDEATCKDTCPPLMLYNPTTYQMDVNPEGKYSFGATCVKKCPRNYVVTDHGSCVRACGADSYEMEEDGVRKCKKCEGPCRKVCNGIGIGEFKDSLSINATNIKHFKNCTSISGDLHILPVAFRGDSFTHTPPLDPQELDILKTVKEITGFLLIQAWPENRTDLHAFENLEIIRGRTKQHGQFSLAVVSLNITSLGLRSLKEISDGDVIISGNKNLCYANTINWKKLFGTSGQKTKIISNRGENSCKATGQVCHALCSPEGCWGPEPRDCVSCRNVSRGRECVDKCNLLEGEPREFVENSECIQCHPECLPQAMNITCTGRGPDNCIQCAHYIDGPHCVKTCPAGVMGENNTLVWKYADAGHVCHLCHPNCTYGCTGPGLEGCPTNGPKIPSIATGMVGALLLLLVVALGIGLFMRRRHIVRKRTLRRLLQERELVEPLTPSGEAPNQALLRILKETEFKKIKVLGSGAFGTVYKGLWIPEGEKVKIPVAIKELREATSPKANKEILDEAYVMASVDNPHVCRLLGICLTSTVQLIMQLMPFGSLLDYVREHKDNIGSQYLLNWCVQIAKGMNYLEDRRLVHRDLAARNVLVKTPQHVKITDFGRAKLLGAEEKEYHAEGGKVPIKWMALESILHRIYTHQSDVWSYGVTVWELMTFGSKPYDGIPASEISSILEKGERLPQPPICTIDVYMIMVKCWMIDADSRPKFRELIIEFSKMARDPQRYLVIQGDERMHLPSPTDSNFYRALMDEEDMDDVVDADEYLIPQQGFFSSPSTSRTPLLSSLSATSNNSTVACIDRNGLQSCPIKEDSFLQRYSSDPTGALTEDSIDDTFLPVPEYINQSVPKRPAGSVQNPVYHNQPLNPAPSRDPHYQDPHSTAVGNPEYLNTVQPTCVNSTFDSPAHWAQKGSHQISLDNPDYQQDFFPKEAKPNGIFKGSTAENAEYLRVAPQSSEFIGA
EGFR wildtype, sequence (P00533 25-1210): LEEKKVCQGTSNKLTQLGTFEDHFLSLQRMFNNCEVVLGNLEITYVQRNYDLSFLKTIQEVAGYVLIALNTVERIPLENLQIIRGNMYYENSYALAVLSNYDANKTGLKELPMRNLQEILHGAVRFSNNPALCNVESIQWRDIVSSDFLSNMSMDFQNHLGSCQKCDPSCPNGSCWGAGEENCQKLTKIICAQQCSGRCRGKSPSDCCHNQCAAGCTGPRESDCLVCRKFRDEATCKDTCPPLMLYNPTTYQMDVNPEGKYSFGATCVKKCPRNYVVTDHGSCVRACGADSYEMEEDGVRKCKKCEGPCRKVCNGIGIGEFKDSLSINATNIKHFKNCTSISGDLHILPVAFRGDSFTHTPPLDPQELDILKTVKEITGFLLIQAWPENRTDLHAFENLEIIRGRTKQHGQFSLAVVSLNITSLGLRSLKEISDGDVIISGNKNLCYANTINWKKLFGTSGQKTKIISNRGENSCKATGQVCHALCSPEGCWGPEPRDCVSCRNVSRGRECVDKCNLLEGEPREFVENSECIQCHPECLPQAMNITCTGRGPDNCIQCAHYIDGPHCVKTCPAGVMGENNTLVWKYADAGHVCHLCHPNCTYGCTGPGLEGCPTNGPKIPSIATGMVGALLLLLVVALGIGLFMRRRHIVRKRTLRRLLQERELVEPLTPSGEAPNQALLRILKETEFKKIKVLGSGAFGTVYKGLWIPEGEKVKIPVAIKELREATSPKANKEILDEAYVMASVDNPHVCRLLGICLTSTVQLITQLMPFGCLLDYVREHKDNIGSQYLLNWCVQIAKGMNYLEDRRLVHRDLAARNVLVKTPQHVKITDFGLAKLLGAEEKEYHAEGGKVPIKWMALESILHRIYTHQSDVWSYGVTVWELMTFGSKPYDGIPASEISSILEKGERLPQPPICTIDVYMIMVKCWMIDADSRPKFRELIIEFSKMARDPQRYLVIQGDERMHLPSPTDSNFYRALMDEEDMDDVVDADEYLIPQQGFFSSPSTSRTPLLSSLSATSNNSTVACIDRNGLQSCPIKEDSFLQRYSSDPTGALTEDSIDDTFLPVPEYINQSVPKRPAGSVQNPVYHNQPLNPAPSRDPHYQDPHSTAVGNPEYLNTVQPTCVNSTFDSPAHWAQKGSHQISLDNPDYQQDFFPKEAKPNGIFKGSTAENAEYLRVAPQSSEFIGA
EGFR del19/T790M/C797S, sequence (P00533 with tags, fused parts or gaps DEL746-750/T790M/C797S): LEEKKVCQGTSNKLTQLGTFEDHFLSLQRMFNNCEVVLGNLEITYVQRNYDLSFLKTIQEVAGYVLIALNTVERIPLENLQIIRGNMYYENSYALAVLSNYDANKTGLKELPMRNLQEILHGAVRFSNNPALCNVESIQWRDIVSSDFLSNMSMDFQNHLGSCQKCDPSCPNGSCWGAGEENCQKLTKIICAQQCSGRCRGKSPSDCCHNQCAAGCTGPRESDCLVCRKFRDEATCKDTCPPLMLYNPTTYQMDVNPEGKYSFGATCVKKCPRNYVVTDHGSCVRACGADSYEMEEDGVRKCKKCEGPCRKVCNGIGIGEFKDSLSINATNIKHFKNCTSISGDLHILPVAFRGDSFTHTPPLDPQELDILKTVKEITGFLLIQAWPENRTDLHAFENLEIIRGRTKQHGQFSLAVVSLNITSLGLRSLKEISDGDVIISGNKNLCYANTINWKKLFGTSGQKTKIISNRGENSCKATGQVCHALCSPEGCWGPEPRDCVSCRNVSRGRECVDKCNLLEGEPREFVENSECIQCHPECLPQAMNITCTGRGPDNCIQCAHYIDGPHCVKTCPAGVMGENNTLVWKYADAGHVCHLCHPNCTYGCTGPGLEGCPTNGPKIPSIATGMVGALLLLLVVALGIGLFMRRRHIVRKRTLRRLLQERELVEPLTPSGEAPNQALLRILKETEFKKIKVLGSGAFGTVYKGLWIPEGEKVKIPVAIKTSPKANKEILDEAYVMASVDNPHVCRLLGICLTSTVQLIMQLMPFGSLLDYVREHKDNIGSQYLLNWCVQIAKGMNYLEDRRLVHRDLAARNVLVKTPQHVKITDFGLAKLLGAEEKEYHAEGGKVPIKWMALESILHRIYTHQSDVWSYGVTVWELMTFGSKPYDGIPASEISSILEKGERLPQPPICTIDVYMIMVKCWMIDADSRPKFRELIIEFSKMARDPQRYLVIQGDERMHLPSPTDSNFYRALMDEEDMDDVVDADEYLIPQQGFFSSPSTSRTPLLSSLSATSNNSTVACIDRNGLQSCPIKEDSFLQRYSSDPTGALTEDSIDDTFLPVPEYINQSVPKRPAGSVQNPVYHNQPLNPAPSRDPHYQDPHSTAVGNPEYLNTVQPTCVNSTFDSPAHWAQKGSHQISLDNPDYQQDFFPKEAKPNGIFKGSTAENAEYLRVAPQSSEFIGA
EGFR L858R/C797S, sequence (P00533 25-1210 C797S/L858R): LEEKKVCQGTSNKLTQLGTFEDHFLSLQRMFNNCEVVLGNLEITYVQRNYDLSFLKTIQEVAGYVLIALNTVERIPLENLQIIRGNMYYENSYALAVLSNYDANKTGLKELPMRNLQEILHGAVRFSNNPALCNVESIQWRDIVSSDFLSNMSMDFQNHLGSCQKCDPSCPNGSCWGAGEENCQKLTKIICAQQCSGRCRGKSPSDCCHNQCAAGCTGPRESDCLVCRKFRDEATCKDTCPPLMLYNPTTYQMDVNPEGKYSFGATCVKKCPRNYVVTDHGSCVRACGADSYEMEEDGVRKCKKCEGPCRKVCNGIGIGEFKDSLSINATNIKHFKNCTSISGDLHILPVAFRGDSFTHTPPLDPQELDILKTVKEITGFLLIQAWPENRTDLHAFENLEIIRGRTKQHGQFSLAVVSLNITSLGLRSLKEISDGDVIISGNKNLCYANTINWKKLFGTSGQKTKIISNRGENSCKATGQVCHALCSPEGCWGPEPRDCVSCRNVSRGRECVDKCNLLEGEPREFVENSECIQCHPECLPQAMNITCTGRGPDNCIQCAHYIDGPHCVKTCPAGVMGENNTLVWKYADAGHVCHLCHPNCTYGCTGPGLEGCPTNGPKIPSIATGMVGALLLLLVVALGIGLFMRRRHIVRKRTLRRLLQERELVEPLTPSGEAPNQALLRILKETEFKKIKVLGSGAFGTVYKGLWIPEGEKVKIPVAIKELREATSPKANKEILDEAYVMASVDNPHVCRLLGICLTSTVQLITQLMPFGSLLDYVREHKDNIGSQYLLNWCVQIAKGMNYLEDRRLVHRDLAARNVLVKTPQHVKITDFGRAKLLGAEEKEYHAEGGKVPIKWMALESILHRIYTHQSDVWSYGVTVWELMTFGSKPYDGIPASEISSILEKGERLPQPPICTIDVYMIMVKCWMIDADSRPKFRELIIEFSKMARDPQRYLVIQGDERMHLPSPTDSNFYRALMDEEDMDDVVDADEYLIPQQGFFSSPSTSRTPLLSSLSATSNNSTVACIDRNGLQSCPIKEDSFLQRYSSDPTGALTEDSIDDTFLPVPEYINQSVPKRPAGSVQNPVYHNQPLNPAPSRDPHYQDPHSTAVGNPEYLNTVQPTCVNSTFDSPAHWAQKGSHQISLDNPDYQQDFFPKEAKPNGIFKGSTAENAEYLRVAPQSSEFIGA

| SMILES | IC50 (EGFR del19/T790M/C797S; [1]) [nM] | IC50 (EGFR del19/T790M/C797S; [2]) [nM] | IC50 (EGFR L858R/T790M/C797S; [3]) [nM] | IC50 (EGFR L858R/T790M/C797S; [4]) [nM] | IC50 (EGFR wildtype; [5]) [nM] | IC50 (EGFR wildtype; [6]) [nM] | IC50 (EGFR del19/C797S; [7]) [nM] | IC50 (EGFR del19/C797S; [8]) [nM] | IC50 (EGFR L858R/C797S; [9]) [nM] | IC50 (EGFR L858R/C797S; [10]) [nM] |
| --- | --- | --- | --- | --- | --- | --- | --- | --- | --- | --- |
| CN(C)C[C@H]1CC[C@@H](Nc2cc(Nc3ccnc(-c4cnn(S(=O)(=O)C5CC5)c4)n3)ncc2-c2cc(N3CCC(F)(F)CC3)ccn2)CC1 [Example 101, N^6′-(2-(1-(Cyclopropylsulfonyl)-1H-pyrazol-4-yl)pyrimidin-4-yl)-4-(4,4-difluoropiperidin-1-yl)-N^4′-((1s,4s)-4-((dimethylamino)methyl)cyclohexyl)-[2,3′-bipyridine]-4′,6′-diamine] | 0.9 | 1.7 | 0.7 | 0.4 | 575 | 2.2 | 2.4 | 2.1 | 14.4 | 2.1 |
| C[C@]1(O)CC[C@@H](Nc2cc(Nc3ccnc(-c4cnn(S(=O)(=O)C5CC5)c4)n3)ncc2-c2cc(N3CCC(F)(F)CC3)ccn2)CC1 [Example 102, (1s,4s)-4-((6′-((2-(1-(Cyclopropylsulfonyl)-1H-pyrazol-4-yl)pyrimidin-4-yl)amino)-4-(4,4-difluoropiperidin-1-yl)-[2,3′-bipyridin]-4′-yl)amino)-1-methylcyclohexan-1-ol] | – | 2.8 | 1 | 0.7 | > 10000 | 21.3 | 9.1 | 4.6 | 29.9 | 8.2 |
| CC(C)(O)[C@H]1CC[C@@H](Nc2cc(Nc3ccnc(-c4cnn(S(=O)(=O)C5CC5)c4)n3)ncc2-c2cc(N3CCC(F)(F)CC3)ccn2)CC1 [Example 103, 2-((1s,4s)-4-((6′-((2-(1-(Cyclopropylsulfonyl)-1H-pyrazol-4-yl)pyrimidin-4-yl)amino)-4-(4,4-difluoropiperidin-1-yl)-[2,3′-bipyridin]-4′-yl)amino)cyclohexyl)propan-2-ol] | 6.6 | – | 3.9 | – | > 10000 | – | 66.5 | – | 654 | – |
| CC(C)(O)c1cc(-c2cnc(Nc3ccnc(-c4cnn(S(=O)(=O)C5CC5)c4)n3)cc2N[C@H]2CC[C@@](C)(O)CC2)ncc1F [Example 104, (1s,4s)-4-((6′-((2-(1-(Cyclopropylsulfonyl)-1H-pyrazol-4-yl)pyrimidin-4-yl)amino)-5-fluoro-4-(2-hydroxypropan-2-yl)-[2,3′-bipyridin]-4′-yl)amino)-1-methylcyclohexan-1-ol] | 1.8 | 1.1 | 0.8 | 0.6 | > 10000 | 21.9 | 3.1 | 2.2 | 21.6 | 0.9 |
| CC(C)(O)c1cc(-c2cnc(Nc3ccnc(-c4cnn(S(=O)(=O)C5CC5)c4)n3)cc2N[C@H]2CC[C@@H](CO)CC2)ncc1F [Example 105, 2-(6′-((2-(1-(Cyclopropylsulfonyl)-1H-pyrazol-4-yl)pyrimidin-4-yl)amino)-5-fluoro-4′-(((1s,4s)-4-(hydroxymethyl)cyclohexyl)amino)-[2,3′-bipyridin]-4-yl)propan-2-ol] | 3.2 | 2.1 | 1.2 | – | 787 | 5.3 | 3.9 | 3 | 5.4 | 0.6 |
| CC(C)(O)c1cc(-c2cnc(Nc3ccnc(-c4cnn(S(=O)(=O)C5CC5)c4)n3)cc2N[C@H]2CC[C@@H](C(C)(C)O)CC2)ncc1F [Example 106, 2-(6′-((2-(1-(Cyclopropylsulfonyl)-1H-pyrazol-4-yl)pyrimidin-4-yl)amino)-5-fluoro-4′-(((1s,4s)-4-(2-hydroxypropan-2-yl)cyclohexyl)amino)-[2,3′-bipyridin]-4-yl)propan-2-ol] | 8.6 | 6.2 | 4.1 | 2.6 | 3710 | 37.8 | 11.2 | – | 9.6 | 4.1 |
| CN(C)C[C@H]1CC[C@@H](Nc2cc(Nc3ccnc(-c4cnn(S(=O)(=O)C5CC5)c4)n3)ncc2-c2cc(C(C)(C)O)c(F)cn2)CC1 [Example 107, 2-(6′-((2-(1-(Cyclopropylsulfonyl)-1H-pyrazol-4-yl)pyrimidin-4-yl)amino)-4′-(((1s,4s)-4-((dimethylamino)methyl)cyclohexyl)amino)-5-fluoro-[2,3′-bipyridin]-4-yl)propan-2-ol] | 0.4 | 0.3 | 0.2 | 0.2 | 327 | 0.4 | 0.5 | 0.1 | 1.8 | 0.1 |
| CC(C)(O)c1ccnc(-c2cnc(Nc3ccnc(-c4cnn(S(=O)(=O)C5CC5)c4)n3)cc2N[C@H]2CC[C@@](C)(O)CC2)c1 [Example 108, (1s,4s)-4-((6′-((2-(1-(Cyclopropylsulfonyl)-1H-pyrazol-4-yl)pyrimidin-4-yl)amino)-4-(2-hydroxypropan-2-yl)-[2,3′-bipyridin]-4′-yl)amino)-1-methylcyclohexan-1-ol] | 0.4 | 0.4 | 0.2 | 0.2 | 1860 | 6.9 | 0.9 | 0.4 | 3.6 | 0.4 |
| CC(C)(O)c1ccnc(-c2cnc(Nc3ccnc(-c4cnn(S(=O)(=O)C5CC5)c4)n3)cc2N[C@H]2CC[C@@H](C(C)(C)O)CC2)c1 [Example 109, 2-(6′-((2-(1-(Cyclopropylsulfonyl)-1H-pyrazol-4-yl)pyrimidin-4-yl)amino)-4′-(((1s,4s)-4-(2-hydroxypropan-2-yl)cyclohexyl)amino)-[2,3′-bipyridin]-4-yl)propan-2-ol] | – | 2 | 0.5 | 0.6 | 1360 | 5.2 | 6.4 | 0.8 | 11.1 | 0.1 |
| CN(C)C[C@H]1CC[C@@H](Nc2cc(Nc3ccnc(-c4cnn(S(=O)(=O)C5CC5)c4)n3)ncc2-c2cc(C(C)(C)O)ccn2)CC1 [Example 110, 2-(6′-((2-(1-(Cyclopropylsulfonyl)-1H-pyrazol-4-yl)pyrimidin-4-yl)amino)-4′-(((1s,4s)-4-((dimethylamino)methyl)cyclohexyl)amino)-[2,3′-bipyridin]-4-yl)propan-2-ol] | 0.2 | 0.1 | 0.1 | 0.1 | 178 | 0.9 | 0.3 | 0.3 | 0.5 | 0.04 |
| CC(C)(O)c1ccnc(-c2cnc(Nc3ccnc(-c4cnn(S(=O)(=O)C5CC5)c4)n3)cc2N[C@H]2CC[C@@H](CO)CC2)c1 [Example 111, 2-(6′-((2-(1-(Cyclopropylsulfonyl)-1H-pyrazol-4-yl)pyrimidin-4-yl)amino)-4′-(((1s,4s)-4-(hydroxymethyl)cyclohexyl)amino)-[2,3′-bipyridin]-4-yl)propan-2-ol] | 0.5 | 0.3 | 0.2 | 0.2 | 198 | 0.7 | 0.7 | 0.2 | 0.4 | 0.03 |
| C[C@]1(O)CC[C@@H](Nc2cc(Nc3ccnc(-c4cnn(S(=O)(=O)C5CC5)c4)n3)ncc2-c2cc(CN3CCC(F)(F)CC3)ccn2)CC1 [Example 112, (1s,4s)-4-((6′-((2-(1-(Cyclopropylsulfonyl)-1H-pyrazol-4-yl)pyrimidin-4-yl)amino)-4-((4,4-difluoropiperidin-1-yl)methyl)-[2,3′-bipyridin]-4′-yl)amino)-1-methylcyclohexan-1-ol] | 5.7 | 4.5 | 3.6 | 2 | > 10000 | 11.7 | 23.2 | 5.1 | 6.9 | 6.8 |
| O=S(=O)(C1CC1)n1cc(-c2nccc(Nc3cc(N[C@H]4CC[C@@H](CO)CC4)c(-c4cc(CN5CCC(F)(F)CC5)ccn4)cn3)n2)cn1 [Example 113, ((1s,4s)-4-((6′-((2-(1-(Cyclopropylsulfonyl)-1H-pyrazol-4-yl)pyrimidin-4-yl)amino)-4-((4,4-difluoropiperidin-1-yl)methyl)-[2,3′-bipyridin]-4′-yl)amino)cyclohexyl)methanol] | 5.3 | 7.5 | 3.2 | 2.3 | > 10000 | 15 | 19.9 | 11 | 20.8 | 8.8 |
